Source: patent US7118895B2, “Process for producing aglycon by using diglycosidase and flavor-improved food containing the aglycon and converting agent to be used in the process” (Amano Enzyme Inc., priority 2000, dated 2006)

System: Crude diglycosidase
Test: Examination of pH in the conversion into isoflavone aglycons by diglycosidase using soybean materials
Format: biochemical, Penicillium multicolor IAM7153
Parameters: Decomposition efficiency of genistin family in soymilk / Decomposition efficiency of genistin family in defatted soybean / Decomposition efficiency of daidzin family in defatted soybean: concentration or dose not given beside the values
Conditions: for Decomposition efficiency of daidzin family in roasted soy flour: 55° C.
Protocol: A substrate solution of 450 μL was prepared by suspending 50 mg of each soybean material (roasted soy flour (manufactured by Fuji Shokuryo K.K.), soymilk (manufactured by Gitoh Shokuhin K.K.), defatted soybean (manufactured by Fuji Seiyu K.K.), concentrated soybean protein (manufactured by Fuji Seiyu K.K.)), and adjusting the pH to 2 to 11 with hydrochloric acid or sodium hydroxide. Each enzyme solution of pH 2–11 wherein diglycosidase activity of crude diglycosidase was adjusted to 1.88 AU/mL was added thereto in an amount of 50 μL and the whole was reacted at 55° C. at the total volume of 500 μL. To the reaction mixture was added 700 μL of ethanol after 0, 1, 3, and 6 hours of the reaction. After stirring and ultrasonication, the mixture was subjected to centrifugal separation at 15,000 rpm and 4° C. for 10 minutes. The supernatant was filtered through a filter and the existence of isoflavone glycosides and aglycon isoflavones contained in the reaction mixture was detected by HLPC (Tables 15 to 26).

[1] = pH4.8, heat treatment of enzyme: no, reaction time 0 h
[2] = pH4.8, heat treatment of enzyme: no, reaction time 1 h
[3] = pH4.8, heat treatment of enzyme: no, reaction time 3 h
[4] = pH4.8, heat treatment of enzyme: no, reaction time 6 h
[5] = pH4.8, heat treatment of enzyme: yes, reaction time 6 h
[6] = pH6.6, heat treatment of enzyme: no, reaction time 0 h
[7] = pH6.6, heat treatment of enzyme: no, reaction time 1 h
[8] = pH6.6, heat treatment of enzyme: no, reaction time 3 h
[9] = pH6.6, heat treatment of enzyme: no, reaction time 6 h
[10] = pH6.6, heat treatment of enzyme: yes, reaction time 6 h

## CC(=O)OC[C@H]1O[C@@H](Oc2ccc3c(=O)c(-c4ccc(O)cc4)coc3c2)[C@H](O)[C@@H](O)[C@@H]1O [acetyldaidzin, 6″-O-acetyldaidzin]
pH1.6, heat treatment of enzyme: no, reaction time 0 h
  Decomposition efficiency of daidzin family in concentrated soybean protein: 44.5%
pH1.6, heat treatment of enzyme: no, reaction time 1 h
  Decomposition efficiency of daidzin family in concentrated soybean protein: 43.7%
pH1.6, heat treatment of enzyme: no, reaction time 3 h
  Decomposition efficiency of daidzin family in concentrated soybean protein: 41.7%
pH1.6, heat treatment of enzyme: no, reaction time 6 h
  Decomposition efficiency of daidzin family in concentrated soybean protein: 39.4%
pH1.6, heat treatment of enzyme: yes, reaction time 6 h
  Decomposition efficiency of daidzin family in concentrated soybean protein: 38.1%
pH2, heat treatment of enzyme no, reaction time 0 h
  Decomposition efficiency of daidzin family in roasted soy flour: 47.4
pH2, heat treatment of enzyme no, reaction time 1 h
  Decomposition efficiency of daidzin family in roasted soy flour: 46.9
pH2, heat treatment of enzyme no, reaction time 3 h
  Decomposition efficiency of daidzin family in roasted soy flour: 45.0
pH2, heat treatment of enzyme no, reaction time 6 h
  Decomposition efficiency of daidzin family in roasted soy flour: 42.4
pH2, heat treatment of enzyme yes, reaction time 6 h
  Decomposition efficiency of daidzin family in roasted soy flour: 42.4
pH2.3, heat treatment of enzyme: no, reaction time 0 h
  Decomposition efficiency of daidzin family in soymilk: not detected
pH2.3, heat treatment of enzyme: no, reaction time 1 h
  Decomposition efficiency of daidzin family in soymilk: not detected
pH2.3, heat treatment of enzyme: no, reaction time 3 h
  Decomposition efficiency of daidzin family in soymilk: not detected
pH2.3, heat treatment of enzyme: no, reaction time 6 h
  Decomposition efficiency of daidzin family in soymilk: not detected
pH2.3, heat treatment of enzyme: yes, reaction time 6 h
  Decomposition efficiency of daidzin family in soymilk: not detected
pH2.6, heat treatment of enzyme: no, reaction time 0 h
  Decomposition efficiency of daidzin family in defatted soybean: not detected
pH2.6, heat treatment of enzyme: no, reaction time 1 h
  Decomposition efficiency of daidzin family in defatted soybean: not detected
pH2.6, heat treatment of enzyme: no, reaction time 3 h
  Decomposition efficiency of daidzin family in defatted soybean: not detected
pH2.6, heat treatment of enzyme: no, reaction time 6 h
  Decomposition efficiency of daidzin family in defatted soybean: not detected
pH2.6, heat treatment of enzyme: yes, reaction time 6 h
  Decomposition efficiency of daidzin family in defatted soybean: not detected
pH2.7, heat treatment of enzyme: no, reaction time 0 h
  Decomposition efficiency of daidzin family in concentrated soybean protein: 44.5%
pH2.7, heat treatment of enzyme: no, reaction time 1 h
  Decomposition efficiency of daidzin family in concentrated soybean protein: 46.4%
pH2.7, heat treatment of enzyme: no, reaction time 3 h
  Decomposition efficiency of daidzin family in concentrated soybean protein: 46.0%
pH2.7, heat treatment of enzyme: no, reaction time 6 h
  Decomposition efficiency of daidzin family in concentrated soybean protein: 45.8%
pH2.7, heat treatment of enzyme: yes, reaction time 6 h
  Decomposition efficiency of daidzin family in concentrated soybean protein: 43.9%
pH3, heat treatment of enzyme no, reaction time 0 h
  Decomposition efficiency of daidzin family in roasted soy flour: 47.4
pH3, heat treatment of enzyme no, reaction time 1 h
  Decomposition efficiency of daidzin family in roasted soy flour: 46.0
pH3, heat treatment of enzyme no, reaction time 3 h
  Decomposition efficiency of daidzin family in roasted soy flour: 39.6
pH3, heat treatment of enzyme no, reaction time 6 h
  Decomposition efficiency of daidzin family in roasted soy flour: 40.7
pH3, heat treatment of enzyme yes, reaction time 6 h
  Decomposition efficiency of daidzin family in roasted soy flour: 47.4
pH3.4, heat treatment of enzyme: no, reaction time 0 h
  Decomposition efficiency of daidzin family in defatted soybean: not detected
pH3.4, heat treatment of enzyme: no, reaction time 1 h
  Decomposition efficiency of daidzin family in defatted soybean: not detected
pH3.4, heat treatment of enzyme: no, reaction time 3 h
  Decomposition efficiency of daidzin family in defatted soybean: not detected
pH3.4, heat treatment of enzyme: no, reaction time 6 h
  Decomposition efficiency of daidzin family in defatted soybean: not detected
pH3.4, heat treatment of enzyme: yes, reaction time 6 h
  Decomposition efficiency of daidzin family in defatted soybean: not detected
pH3.5, heat treatment of enzyme: no, reaction time 0 h
  Decomposition efficiency of daidzin family in soymilk: not detected
pH3.5, heat treatment of enzyme: no, reaction time 1 h
  Decomposition efficiency of daidzin family in soymilk: not detected
pH3.5, heat treatment of enzyme: no, reaction time 3 h
  Decomposition efficiency of daidzin family in soymilk: not detected
pH3.5, heat treatment of enzyme: no, reaction time 6 h
  Decomposition efficiency of daidzin family in soymilk: not detected
pH3.5, heat treatment of enzyme: yes, reaction time 6 h
  Decomposition efficiency of daidzin family in soymilk: not detected
pH3.7, heat treatment of enzyme: no, reaction time 0 h
  Decomposition efficiency of daidzin family in concentrated soybean protein: 44.6%
pH3.7, heat treatment of enzyme: no, reaction time 1 h
  Decomposition efficiency of daidzin family in concentrated soybean protein: 41.6%
pH3.7, heat treatment of enzyme: no, reaction time 3 h
  Decomposition efficiency of daidzin family in concentrated soybean protein: 33.0%
pH3.7, heat treatment of enzyme: no, reaction time 6 h
  Decomposition efficiency of daidzin family in concentrated soybean protein: 25.2%
pH3.7, heat treatment of enzyme: yes, reaction time 6 h
  Decomposition efficiency of daidzin family in concentrated soybean protein: 44.4%
pH4, heat treatment of enzyme no, reaction time 0 h
  Decomposition efficiency of daidzin family in roasted soy flour: 47.7
pH4, heat treatment of enzyme no, reaction time 1 h
  Decomposition efficiency of daidzin family in roasted soy flour: 34.4
pH4, heat treatment of enzyme no, reaction time 3 h
  Decomposition efficiency of daidzin family in roasted soy flour: 20.5
pH4, heat treatment of enzyme no, reaction time 6 h
  Decomposition efficiency of daidzin family in roasted soy flour: 11.1
pH4, heat treatment of enzyme yes, reaction time 6 h
  Decomposition efficiency of daidzin family in roasted soy flour: 47.9
[1]
  Decomposition efficiency of daidzin family in defatted soybean: not detected
  Decomposition efficiency of daidzin family in soymilk: not detected
[2]
  Decomposition efficiency of daidzin family in defatted soybean: not detected
  Decomposition efficiency of daidzin family in soymilk: not detected
[3]
  Decomposition efficiency of daidzin family in defatted soybean: not detected
  Decomposition efficiency of daidzin family in soymilk: not detected
[4]
  Decomposition efficiency of daidzin family in defatted soybean: not detected
  Decomposition efficiency of daidzin family in soymilk: not detected
[5]
  Decomposition efficiency of daidzin family in defatted soybean: not detected
  Decomposition efficiency of daidzin family in soymilk: not detected
pH5, heat treatment of enzyme no, reaction time 0 h
  Decomposition efficiency of daidzin family in roasted soy flour: 47.7
pH5, heat treatment of enzyme no, reaction time 1 h
  Decomposition efficiency of daidzin family in roasted soy flour: 38.5
pH5, heat treatment of enzyme no, reaction time 3 h
  Decomposition efficiency of daidzin family in roasted soy flour: 24.7
pH5, heat treatment of enzyme no, reaction time 6 h
  Decomposition efficiency of daidzin family in roasted soy flour: 15.2
pH5, heat treatment of enzyme yes, reaction time 6 h
  Decomposition efficiency of daidzin family in roasted soy flour: 45.0
pH5.1, heat treatment of enzyme: no, reaction time 0 h
  Decomposition efficiency of daidzin family in concentrated soybean protein: 44.6%
pH5.1, heat treatment of enzyme: no, reaction time 1 h
  Decomposition efficiency of daidzin family in concentrated soybean protein: 43.4%
pH5.1, heat treatment of enzyme: no, reaction time 3 h
  Decomposition efficiency of daidzin family in concentrated soybean protein: 37.0%
pH5.1, heat treatment of enzyme: no, reaction time 6 h
  Decomposition efficiency of daidzin family in concentrated soybean protein: 31.2%
pH5.1, heat treatment of enzyme: yes, reaction time 6 h
  Decomposition efficiency of daidzin family in concentrated soybean protein: 43.4%
pH5.4, heat treatment of enzyme: no, reaction time 0 h
  Decomposition efficiency of daidzin family in defatted soybean: not detected
pH5.4, heat treatment of enzyme: no, reaction time 1 h
  Decomposition efficiency of daidzin family in defatted soybean: not detected
pH5.4, heat treatment of enzyme: no, reaction time 3 h
  Decomposition efficiency of daidzin family in defatted soybean: not detected
pH5.4, heat treatment of enzyme: no, reaction time 6 h
  Decomposition efficiency of daidzin family in defatted soybean: not detected
pH5.4, heat treatment of enzyme: yes, reaction time 6 h
  Decomposition efficiency of daidzin family in defatted soybean: not detected
pH6.2, heat treatment of enzyme: no, reaction time 0 h
  Decomposition efficiency of daidzin family in soymilk: not detected
pH6.2, heat treatment of enzyme: no, reaction time 1 h
  Decomposition efficiency of daidzin family in soymilk: not detected
pH6.2, heat treatment of enzyme: no, reaction time 3 h
  Decomposition efficiency of daidzin family in soymilk: not detected
pH6.2, heat treatment of enzyme: no, reaction time 6 h
  Decomposition efficiency of daidzin family in soymilk: not detected
pH6.2, heat treatment of enzyme: yes, reaction time 6 h
  Decomposition efficiency of daidzin family in soymilk: not detected
pH6.5, heat treatment of enzyme no, reaction time 0 h
  Decomposition efficiency of daidzin family in roasted soy flour: 48.2
pH6.5, heat treatment of enzyme no, reaction time 1 h
  Decomposition efficiency of daidzin family in roasted soy flour: 45.4
pH6.5, heat treatment of enzyme no, reaction time 3 h
  Decomposition efficiency of daidzin family in roasted soy flour: 39.2
pH6.5, heat treatment of enzyme no, reaction time 6 h
  Decomposition efficiency of daidzin family in roasted soy flour: 34.4
pH6.5, heat treatment of enzyme yes, reaction time 6 h
  Decomposition efficiency of daidzin family in roasted soy flour: 43.4
[6]
  Decomposition efficiency of daidzin family in concentrated soybean protein: 44.8%
  Decomposition efficiency of daidzin family in defatted soybean: not detected
[7]
  Decomposition efficiency of daidzin family in concentrated soybean protein: 43.9%
  Decomposition efficiency of daidzin family in defatted soybean: not detected
[8]
  Decomposition efficiency of daidzin family in concentrated soybean protein: 42.9%
  Decomposition efficiency of daidzin family in defatted soybean: not detected
[9]
  Decomposition efficiency of daidzin family in concentrated soybean protein: 41.2%
  Decomposition efficiency of daidzin family in defatted soybean: not detected
[10]
  Decomposition efficiency of daidzin family in concentrated soybean protein: 41.8%
  Decomposition efficiency of daidzin family in defatted soybean: not detected
pH7.2, heat treatment of enzyme: no, reaction time 0 h
  Decomposition efficiency of daidzin family in soymilk: not detected
pH7.2, heat treatment of enzyme: no, reaction time 1 h
  Decomposition efficiency of daidzin family in soymilk: not detected
pH7.2, heat treatment of enzyme: no, reaction time 3 h
  Decomposition efficiency of daidzin family in soymilk: not detected
pH7.2, heat treatment of enzyme: no, reaction time 6 h
  Decomposition efficiency of daidzin family in soymilk: not detected
pH7.2, heat treatment of enzyme: yes, reaction time 6 h
  Decomposition efficiency of daidzin family in soymilk: not detected
pH7.8, heat treatment of enzyme: no, reaction time 0 h
  Decomposition efficiency of daidzin family in defatted soybean: not detected
pH7.8, heat treatment of enzyme: no, reaction time 1 h
  Decomposition efficiency of daidzin family in defatted soybean: not detected
pH7.8, heat treatment of enzyme: no, reaction time 3 h
  Decomposition efficiency of daidzin family in defatted soybean: not detected
pH7.8, heat treatment of enzyme: no, reaction time 6 h
  Decomposition efficiency of daidzin family in defatted soybean: not detected
pH7.8, heat treatment of enzyme: yes, reaction time 6 h
  Decomposition efficiency of daidzin family in defatted soybean: not detected
pH8.5, heat treatment of enzyme no, reaction time 0 h
  Decomposition efficiency of daidzin family in roasted soy flour: 42.1
pH8.5, heat treatment of enzyme no, reaction time 1 h
  Decomposition efficiency of daidzin family in roasted soy flour: 42.7
pH8.5, heat treatment of enzyme no, reaction time 3 h
  Decomposition efficiency of daidzin family in roasted soy flour: 40.3
pH8.5, heat treatment of enzyme no, reaction time 6 h
  Decomposition efficiency of daidzin family in roasted soy flour: 38.0
pH8.5, heat treatment of enzyme yes, reaction time 6 h
  Decomposition efficiency of daidzin family in roasted soy flour: 37.3
pH8.6, heat treatment of enzyme: no, reaction time 0 h
  Decomposition efficiency of daidzin family in concentrated soybean protein: 40.7%
pH8.6, heat treatment of enzyme: no, reaction time 1 h
  Decomposition efficiency of daidzin family in concentrated soybean protein: 39.2%
pH8.6, heat treatment of enzyme: no, reaction time 3 h
  Decomposition efficiency of daidzin family in concentrated soybean protein: 39.0%
pH8.6, heat treatment of enzyme: no, reaction time 6 h
  Decomposition efficiency of daidzin family in concentrated soybean protein: 38.1%
pH8.6, heat treatment of enzyme: yes, reaction time 6 h
  Decomposition efficiency of daidzin family in concentrated soybean protein: 37.7%
pH11.6, heat treatment of enzyme: no, reaction time 0 h
  Decomposition efficiency of daidzin family in soymilk: not detected
pH11.6, heat treatment of enzyme: no, reaction time 1 h
  Decomposition efficiency of daidzin family in soymilk: not detected
pH11.6, heat treatment of enzyme: no, reaction time 3 h
  Decomposition efficiency of daidzin family in soymilk: not detected
pH11.6, heat treatment of enzyme: no, reaction time 6 h
  Decomposition efficiency of daidzin family in soymilk: not detected
pH11.6, heat treatment of enzyme: yes, reaction time 6 h
  Decomposition efficiency of daidzin family in soymilk: not detected
